The source of these data is article PMC8347709 (International Journal of Molecular Sciences, 2021).

Tested on in one data set: not given
Assay: not given
The following applies: cited from earlier work. Details: method as in PMID 30342565, PMID 2173751.
With (−)-Δ9-trans-tetrahydrocannabinol [THC], the LogD7.4 is on record as over 7.

A further data set deals with T1, hCB2R (Homo sapiens, UniProt P34972). Nature of the data set: competitive radioligand displacement with [3H]WIN55212-2 on hCB2-CHO membrane preparations. The format is binding. Details: host or cells: CHO cells, stably transfected. The following applies: hCB2-CHO membranes, read-out: Ki(hCB2R). (In general: Displacement assays read how much labelled ligand stays bound in the presence of the test substance.)
T1 sequence (P34972 whole entry): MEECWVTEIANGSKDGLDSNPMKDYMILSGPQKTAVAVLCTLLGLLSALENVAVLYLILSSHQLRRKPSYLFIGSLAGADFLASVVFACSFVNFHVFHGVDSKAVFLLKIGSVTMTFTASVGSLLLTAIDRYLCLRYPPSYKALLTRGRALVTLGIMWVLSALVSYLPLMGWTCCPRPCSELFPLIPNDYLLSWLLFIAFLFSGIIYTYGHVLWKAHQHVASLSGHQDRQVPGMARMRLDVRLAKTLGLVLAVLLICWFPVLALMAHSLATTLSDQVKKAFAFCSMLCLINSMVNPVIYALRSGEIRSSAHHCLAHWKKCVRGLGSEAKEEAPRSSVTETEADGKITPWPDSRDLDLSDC
Description: In brief, membrane preparations obtained from CHO cell lines stably transfected with either human CB1 (hCB1-CHO; obtained from Euroscreen, Gosselies, Belgium) or human CB2 (hCB2-CHO; obtained from Paul L. Prather, Department of Pharmacology and Toxicology, College of Medicine, University of Arkansas for Medical Sciences, Fayetteville, AR, USA) were used along with [^3H]SR141716A (1554 GBq/mmol; PerkinElmer Life and Analytical Sciences, Rodgau, Germany) and [^3H]WIN55212-2 (6438 GBq/mmol; PerkinElmer Life and Analytical Sciences, Rodgau, Germany), resp., as target-specific radioligands. The incubations were performed in 50 mM TRIS-HCl, pH 7.4, supplemented with 0.1% bovine serum albumin (BSA), 5 mM MgCl2, and 1 mM EDTA for 90 min at room temperature. Various concentrations of test compounds were administered, and the non-specific binding was determined in the presence of 10 μM 56. The values of bound activity were used to determine affinity (Ki) values using non-linear regression analysis (GraphPad Prism 2.01, v9, San Diego, CA, USA) and based on the KD values of [^3H]56 determined by saturation experiments [54].
Human CB2 receptors were expressed in CHO cells, and affinities were determined by competitive radioligand displacement experiments using [^3H]WIN552122. […]
With `C[C@H]1CC[C@@H](NC(=O)c2cc3cccnc3n(CCCCF)c2=O)CC1` [cis-5], the Ki amounted to 6 nM.
On the same count and under the same terms, the value for `C[C@H]1CC[C@H](NC(=O)c2cc3cccnc3n(CCCCF)c2=O)CC1` [trans-5] was 52 nM.

A further data set has as its target CB2.
Assay: not given
On the set-up: method as in PMID 29921889, PMID 33379862. The following applies: Figure 1; cited from earlier work.
Take `Cc1s/c(=N\C(=O)C2C(C)(C)C2(C)C)n(CCO[11CH3])c1C` [[^11C]A-836339]: the inhibitory constant (Ki) was 0.7 nM.
Consider `CCCCCn1cc(C(=O)NC23CC4CC(CC(C4)C2)C3)c(=O)c2cccc(O[11CH3])c21` [[^11C]KD2], for which the Ki was 1.7 nM.
Turning to `[11CH3]Oc1ccc2ncc(NCCCc3nc(-c4ccc(F)cc4Cl)no3)cc2c1` [[^11C]MA2], the Ki is 87 nM.
On to `CCCCOc1c(O[11CH3])ccc2cc(C(=O)NC3CCCCC3)c(=O)[nH]c12` [[^11C]NE40], for which the Ki was 9.6 nM.
`CCOCCn1cc(C(=O)NC23CC4CC(CC(C4)C2)C3)c(=O)c2cccc(O[11CH3])c21` [[^11C]RS-016]: the inhibition constant Ki is 0.7 nM.
Turning to `CCOC(=O)C(CC)(CC)NC(=O)c1ccc(N2CC(O[11CH3])C2)c(OCC2CC2)n1` [[^11C]RSR-056], the inhibitory constant (Ki) is 2.5 nM.
Consider `CCCCOc1c(OCC[18F])ccc2cc(C(=O)NC3CCCCC3)c(=O)[nH]c12` [[^18F]1], for which the inhibitory constant (Ki) was 36 nM.
With `CCC(CC)(NC(=O)c1ccc(N2CC(OC)C2)c(OCC2CC2)n1)C(=O)OCCC[18F]` [[^18F]2], the Ki was 6 nM.
Regarding `COc1cccc2c(=O)c(C(=O)NC34CC5CC(CC(C5)C3)C4)cn(CCOCCCC[18F])c12` [[^18F]AH-040], the Ki was 0.9 nM.
For `COc1cccc2c(=O)c(C(=O)NC34CC5CC(CC(C5)C3)C4)cn(CCCOCCC[18F])c12` [[^18F]AH-043], the inhibitory constant (Ki) is 6.3 nM.
As to `Cc1s/c(=N\C(=O)C2C(C)(C)C2(C)C)n(CCOCC[18F])c1C` [[^18F]FC024], the inhibitory constant (Ki) is 0.1 nM.
On to `Cc1s/c(=N\C(=O)C2C(C)(C)C2(C)C)n(CCCC[18F])c1C` [[^18F]JHU94620], for which the Ki is 0.4 nM.
As to `Fc1ccc(-c2noc(CCCNc3cnc4ccc(OCC[18F])cc4c3)n2)c(Cl)c1` [[^18F]MA3], the Ki is 0.8 nM.
On to `CCOCCn1cc(C(=O)NC23CC4CC(CC(C4)C2)C3)c(=O)c2cccc(OCC[18F])c21` [[^18F]RS-122], for which the inhibitory constant (Ki) was 72 nM.
Regarding `COc1cccc2c(=O)c(C(=O)NC34CC5CC(CC(C5)C3)C4)cn(CCOCCC[18F])c12` [[^18F]RS-126], the inhibitory constant (Ki) was 1.2 nM.
Consider `[2H]C([2H])([18F])C([2H])([2H])C([2H])([2H])OC(=O)C(CC)(CC)NC(=O)c1ccc(N2CC(OC)C2)c(OCC2CC2)n1` [[^18F]RoSMA-18-d6], for which the Ki is 6 nM.

The target in a further data set is T1, hCB2R.
Assay: not given
The following applies: HEK-293 membranes, [3H]CP-55,940; cited from earlier work.
Regarding `CC1CCC(NC(=O)c2cc3cccnc3n(CCCCF)c2=O)CC1` (stereo not shown) [compound 5, 1-(4-Fluorbutyl)-N-(4-methyl)-2-oxo-1,2-dihydro-1,8-naphthyridine-3-carboxamide], the inhibitory constant (Ki) was 1.4 nM.

The same data set, now with this note: diastereomeric mixture; published value; cited from earlier work.
On to `CC1CCC(NC(=O)c2cc3cccnc3n(CCCCF)c2=O)CC1` (stereo not shown) [compound 5, 1-(4-Fluorbutyl)-N-(4-methyl)-2-oxo-1,2-dihydro-1,8-naphthyridine-3-carboxamide], for which the inhibition constant Ki was 1.3 nM.

The next data set concerns the target T2, CB2R in rat spleen tissue (Rattus norvegicus, UniProt Q9QZN9).
T2 construct: from tissue; host or cells: rat spleen cryosections (female SPRD rat)
T2 sequence (Q9QZN9 1-360): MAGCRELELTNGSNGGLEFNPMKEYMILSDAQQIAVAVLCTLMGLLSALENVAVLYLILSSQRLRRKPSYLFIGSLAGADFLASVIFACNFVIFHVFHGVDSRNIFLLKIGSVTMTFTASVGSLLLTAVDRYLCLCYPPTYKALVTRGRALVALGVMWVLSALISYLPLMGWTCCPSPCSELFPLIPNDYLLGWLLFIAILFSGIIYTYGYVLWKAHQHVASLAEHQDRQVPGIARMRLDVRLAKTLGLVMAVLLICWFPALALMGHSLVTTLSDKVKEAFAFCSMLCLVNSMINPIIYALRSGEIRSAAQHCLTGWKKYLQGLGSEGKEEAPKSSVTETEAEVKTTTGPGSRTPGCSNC
Assay: not given
On the set-up: method as in PMID 27713686. The following applies: previously reported; cited from earlier work.
For the compound `Fc1ccc(-c2noc(CCCNc3cnc4ccc(OCC[18F])cc4c3)n2)c(Cl)c1` [[^18F]MA3], the “visualisation of CB2 receptors in rodent spleen tissue” value was “inability to visualise CB2 receptors in rodent spleen tissue”.

As a reminder, the Ki is a measure of affinity in units of concentration, obtained from inhibition or displacement.
